Earlier results, collected in patent US20050181001A1, “Topical formulation for insect repellents” (priority 2003, published 2005).

What was measured:
mosquitoes [1] = test system: mosquitoes
mosquitoes [2] = details: oral

CC1=COC(=O)C2C(C)CCC12 (stereo not drawn) [nepetalactone]
effectiveness at repelling mosquitoes relative to DEET (mosquitoes [1]): more effective at repelling mosquitoes than DEET

Cc1ncc(C[n+]2csc(CCO)c2C)c(N)n1 [thiamine]
time before the odor fully saturates the skin and becomes effective (mosquitoes [2]): up to 2 weeks | reduction of mosquito bites (mosquitoes [2]; 25 to 50 mg three times per day): effective in reducing mosquito bites
